Read-outs that look alike come from different tables or passages of the source. Blank lines part the entries; values can stand above or below the molecule they belong to. Square brackets hold non-standard residues; d marks the D form. Ends that are not written are not given here.
What was measured:
[1] = Table 1 comment; cited from earlier work
rats = experiment: Mean arterial pressure (MAP) in rats after Tat peptides with or without anti-inflammatory agents
Sprague Dawley rats = experiment: MAP in rats: lodoxamide co-formulation or cromolyn infusion with Tat-NR2B9c; type: in vivo, rat; settings: for Effect on drop in MAP resulting from Tat-NR2B9c: cromolyn infused for three minutes immediately before Tat-NR2B9c, FIG. 13B
[2] = tested on: animal model of infarction; settings: cited from earlier work
Beagle dogs = experiment: Antihistamine pre-treatment before Tat-NR2B9c in dogs; settings: benadryl 1 mg/kg 30 minutes before 12.5 mg/kg Tat-NR2B9c; female dog
mast cells = experiment: Mast cell degranulation assay (tryptase activity); type: cell-based, mouse; set-up: Mast cell degranulation (relative tryptase activity): dose or concentration left out as unconfirmed; settings: for Dose dependence of mast cell degranulation: increasing concentrations, FIG. 3
[3] = tested on: Sprague Dawley rats, P3VO model of stroke; experiment: Pial 3 vessel occlusion (P3VO) model of stroke, infarct size; type: in vivo, rat; settings: 3 nM/g i.v. 1 h after stroke, vs saline
rat 3PVO model of stroke = experiment: Rat 3PVO model of stroke, lodoxamide co-formulation; type: in vivo; settings: FIG. 15
PSD95 / NMDAR 2B = PSD95 / NMDAR 2B (Homo sapiens, UniProt P78352); settings: reported by Bach; cited from earlier work
cerebral ischemia = settings: reported in WO 2008/014917; cited from earlier work

Chain of PSD95 / NMDAR 2B (P78352 whole entry): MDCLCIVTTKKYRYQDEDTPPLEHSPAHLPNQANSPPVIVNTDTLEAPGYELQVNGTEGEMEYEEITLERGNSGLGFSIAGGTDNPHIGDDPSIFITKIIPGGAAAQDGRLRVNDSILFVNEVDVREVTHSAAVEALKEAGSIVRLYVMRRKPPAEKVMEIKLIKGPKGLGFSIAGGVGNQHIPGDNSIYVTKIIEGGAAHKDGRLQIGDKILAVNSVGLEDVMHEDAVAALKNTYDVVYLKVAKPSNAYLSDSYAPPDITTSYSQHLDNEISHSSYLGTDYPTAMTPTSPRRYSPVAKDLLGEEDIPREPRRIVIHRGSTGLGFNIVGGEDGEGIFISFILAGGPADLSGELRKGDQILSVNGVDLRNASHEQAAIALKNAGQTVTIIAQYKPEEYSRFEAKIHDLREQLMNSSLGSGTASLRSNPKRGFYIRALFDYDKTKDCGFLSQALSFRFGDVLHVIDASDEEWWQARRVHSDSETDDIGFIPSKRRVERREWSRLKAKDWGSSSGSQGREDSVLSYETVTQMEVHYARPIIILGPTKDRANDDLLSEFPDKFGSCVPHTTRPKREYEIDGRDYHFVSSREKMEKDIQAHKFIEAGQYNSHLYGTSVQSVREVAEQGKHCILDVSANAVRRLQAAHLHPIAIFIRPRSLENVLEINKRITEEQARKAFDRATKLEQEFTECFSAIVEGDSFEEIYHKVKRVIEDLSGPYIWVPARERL

Molecule: NCCc1ccc(O)c(O)c1 [Dopamine]
- BBB crossing [1]: Cannot cross

Molecule: N[C@@H](Cc1ccc(O)c(O)c1)C(=O)O [Levodopa]
- halflife [1]: halflife = 1.5 hrs

Molecule: NC(=O)CN1CCCC1=O [Piracetam]
- BBB crossing [1]: Cannot cross

- Effect of the agent itself on MAP (rats; Ranitidine only): no effect on MAP itself
Molecule: CNC(=C[N+](=O)[O-])NCCSCc1ccc(CN(C)C)o1 [Ranitidine]

Molecule: CN[C@H](CC(C)C)C(=O)N[C@H]1C(=O)N[C@@H](CC(N)=O)C(=O)N[C@H]2C(=O)N[C@H]3C(=O)N[C@H](C(=O)N[C@H](C(=O)O)c4cc(O)cc(O)c4-c4cc3ccc4O)[C@H](O)c3ccc(c(Cl)c3)Oc3cc2cc(c3O[C@@H]2O[C@H](CO)[C@@H](O)[C@H](O)[C@H]2O[C@H]2C[C@](C)(N)[C@H](O)[C@H](C)O2)Oc2ccc(cc2Cl)[C@H]1O [Vacomycin]
- halflife [1]: uptake, 4-6 hr

- Effect on MAP in the absence of Tat-NR2B9c (rats; cromolyn plus saline control): did not itself affect MAP
Molecule: O=C(O)c1cc(=O)c2c(OCC(O)COc3cccc4oc(C(=O)O)cc(=O)c34)cccc2o1 [cromolyn, 5,5′-(2-hydroxypropane-1,3-diyl)bis(oxy)bis(4-oxo-4H-chromene-2-carboxylic acid)]
- Effect on drop in MAP resulting from Tat-NR2B9c (Sprague Dawley rats): completely abrogate a drop in MAP
- Effect on drop in MAP resulting from Tat-NR2B9c (Sprague Dawley rats; listed as Cromolyn): completely abrogated the drop in MAP
- Direct activity in inhibiting infarctions ([2]; administered i.c.v.): has direct activity in inhibiting infarctions
- Direct activity in inhibiting infarctions ([2]; administered intravenously): not intravenously
- Effect on decline of MAP due to Rv-Tat-NR2B9c (rats; cromolyn before Rv-Tat-NR2B9c, FIGS. 8E and F): significantly inhibited decline of MAP values

- Reaction after pre-treatment (Beagle dogs): no reaction
Molecule: CN(C)CCOC(c1ccccc1)c1ccccc1 [diphenhydramine]
- Effect of the agent itself on blood pressure (rats; diphenhydramine 1 mg/kg): did not itself reduce blood pressure
- Effect on decline of blood pressure due to Tat-NR2B9c (rats; diphenhydramine 1 mg/kg): not observed to have a significant effect
- Effect of the agent itself on blood pressure before Tat-NR2B9c (rats; diphenhydramine 12.5 mg/kg): caused a sharp reduction in blood pressure
- Effect on decline in blood pressure due to Tat-NR2B9c (rats; diphenhydramine 12.5 mg/kg, FIGS. 9A-D): significantly inhibited decline in blood pressure

Molecule: N#Cc1cc(NC(=O)C(=O)O)c(Cl)c(NC(=O)C(=O)O)c1 [lodoxamide, 2-[2-chloro-5-cyano-3-(oxaloamino)anilino]-2-oxoacetic acid]
- Effect on drop in MAP resulting from Tat-NR2B9c injection (Sprague Dawley rats; 6 mg/kg lodoxamide co-formulated with Tat-NR2B9c (3 mg/kg, 3 mM/kg elsewhere in the source), 2 minute infusion, FIG. 13A): completely abrogate the drop in MAP

Molecule: COc1ccc(CN(CCN(C)C)c2ccccn2)cc1 [pyrilamine]
- Reduction of maximal decline in blood pressure due to Tat-NR2B9c (rats; pyrilamine, FIGS. 10A-D): did not achieve statistical significance

Molecule: H-YGRKKRRQRRRKLSSIESDV-OH [Tat-NR2B9c]
- Dose dependence of mast cell degranulation (mast cells): dose dependent
- Infarct size 24 hours after P3VO surgery ([3]; female rats): complete lack of infarct
- Infarct size 24 hours after P3VO surgery ([3]; male rats): significantly decreased infarct size
- Infarction size relative to vehicle control (rat 3PVO model of stroke): significantly inhibited infarction size

Molecule: IESDV (synthetic pentamer peptide from the C-terminus of NMDAR 2B)
- Inhibition of binding of NMDAR 2B to PSD95 (PSD95 / NMDAR 2B): effective in inhibiting binding of NMDAR 2B to PSD95

Molecule: KLSSIESDV (Synthetic pharmacologic agent) [NR2B9c]
- Mast cell degranulation (relative tryptase activity) (mast cells; FIG. 2): did not
- Mast cell degranulation, Tat sequence variants (mast cells; all at 50 μM, Table 5 prints 125 mg/ml, FIG. 4): did not elicit this reaction

Molecule: YGRKKRRQRRRKLSSIEADA (Synthetic Tat-NR2B9c peptide with 2 point mutations in the PSD-95 binding domain) [AA]
- Dose dependence of mast cell degranulation (mast cells): dose dependent

Molecule: vdseisslk-rrrqrrkkrgyin ([dV][dD][dS][dE][dI][dS][dS][dL][dK][dR][dR][dR][dQ][dR][dR][dK][dK][dR]G[dY][dI][dN]; also: retro-inverso)
- Inhibition of cerebral ischemia (cerebral ischemia): effective in inhibiting cerebral ischemia

— patent publication US10046060B2, “Co-administration of an agent linked to an internalization peptide with an anti-inflammatory” (NoNO Inc., priority 2007, dated 2018)
